The record followed here is patent US20150224164A1, “TREATMENT OF AUTISM SPECTRUM DISORDERS USING GLYCYL-L-2-METHYLPROLYL-L-GLUMATIC ACID” (Neuren Pharmaceuticals Limited, priority 2013, published 2015).

In experiment [1] the test system is PCNA positive cells in the subventricular zone (SVZ). In words: Neuroblast proliferation, PCNA positive cells in subventricular zone. In kind it is in vivo, rat. The following applies: 3 days. The protocol:
To carry out these studies, tissues were fixed and embedded in paraffin and sections obtained using standard methods. Coronal sections (6 μm) containing the level of the hippocampus were cut and mounted on chrome-alum-coated slides for staining. The sections were deparaffinized in xylene, […] in a series of ethanol and incubated in 0.1 M phosphate buffered saline (PBS). Primary antibodies against glial fibrillary acidic protein (GFAP) and proliferating cell nuclear antigen (PCNA) were used to mark reactive glial cells and cells undergoing apoptosis and proliferation, respectively. For antigen unmasking (caspase-3 and PCNA staining), sections were heated in 10 mM sodium citrate buffer (pH 6.0) for 1 min at high power. All sections were pretreated with 1% H2O2 in 50% methanol for 30 min to quench the endogenous peroxidase activity. Then either 1.5% normal horse serum or 2.5% normal sheep serum in PBS was applied for 1 h at room temperature to block nonspecific background staining. […] The number of PCNA positive cells was counted in the subventricular zone and the GFAP positive cells was scored in the cerebral cortex. […] The number of PCNA positive cells was counted in the SVZ and the number of cells was then averaged as cells/mm depending on the length of ventricle wall used for counting (FIG. 19A). […]

The subject of experiment [2] is Tbx1 heterozygous, Cntnap2 knockout, Slc9a6 knockout and fmr1 knockout mouse. In words: Genetic models of ASD: Tbx1, Cntnap2, Slc9a6, fmr1 mice (Example 17). The experiment is classed as in vivo. To be noted: 20 mg/kg/day i.p. As for the experimental part:
Animals in each of the above models are generated in accordance with the methodology described in the cited literature. Wild type equivalents are also obtained for each genetic model. Animals in each model are divided into three groups (n=10 to n=20): placebo treated wild type mice, mutant G-2-MePE-treated group and mutant placebo-treated control group. The treatments are administered intraperitoneally: placebo (saline) or 20 mg/kg/day of G-2-MePE.

A further experiment concerns fmr1 knockout mice. In words: Open field test, fmr1 knockout mice. To be noted: 100 mg/kg i.p. 28 days. The experiment is classed as in vivo, mouse. As for the experimental part: 1. fmr1 KO+Vehicle (saline) 2. Wt+Vehicle (saline) 3. fmr1 KO+G-2-MePE (100 mg/kg in saline) 4. Wt+G-2-MePE (100 mg/kg in saline).
G-2-MePE was administered at the dose of 100 mg/kg i.p. in 0.1 ml saline, once daily for 28 days. Vehicle-treated animals were injected with 0.1 ml saline daily for 28 days. Thereafter, drug or vehicle treatments were stopped and animals were tested on successive days until all tests were completed. Finally, the animals were sacrificed for determining expression of pAkt and pERK
The open field is a grey PVC enclosed arena 50×30 cm divided into 10 cm squares. Mice were brought to the experimental room 5-20 min before testing. A mouse was placed into a corner square facing the corner and observed for 3 min. The number of squares entered (whole body) and rears (both front paws off the ground, but not as part of grooming) were counted. The latency to the first rearing (rear) was also noted. The movement of the mouse around the field was recorded with a video tracking device for 300 s (vNT4.0, Viewpoint). The latency for the mouse to enter the brightest, central part of the field total time spent in this central region, and total activity (in terms of path length in centimeters), were recorded in each trial, the initial exposure, 10 min after the initial exposure and 24 h after the initial exposure.
During exposure to the open field chamber mice habituated to the environment and thus explored less, decreasing the amount movement shown over time. Movement and rearing were recorded during the 3 exposures. Failures to reduce locomotion or rearing at 10 minutes and 24 hours indicated deficits in short and long term memory, respectively.

Where a SMILES comes first, the peptide text is derived from it.

For the molecule `C[C@@]1(C(=O)N[C@@H](CCC(=O)O)C(=O)O)CCCN1C(=O)CN` [Example G-2-MePE, Glycyl-L-2-methylprolyl-L-glutamic acid] (HELM PEPTIDE1{G.[C[C@@]1(C(=O)[*:2])CCCN1[*:1]].E}$$$$V2.0), the “number of PCNA positive cells in SVZ” value is “significant increase” in experiment [1] (9 month old rats, 1.2 mg/kg i.p., p<0.005) and “significant increase” in experiment [1] (18 month old rats, single i.p. 12 mg/kg, vs vehicle p<0.05). Moreover, the “measures associated with the ASD phenotype” value in experiment [2] is “significantly improves all measures”. In addition, the rearing activity entry is reported as “significantly reduced rearing activity” in the experiment on fmr1 knockout mice (fmr1 KO mice) and “no effect” with fmr1 knockout mice (wild-type mice). In addition, the “movement in the open field” value in the experiment with fmr1 knockout mice (fmr1 knockout mice, 2nd and 3rd trials) was “significantly reduce movement”.
